Assay results as given in US20240148962A1, “INTRAVENOUS DELIVERY OF LARGE VOLUMES OF GAS WITH HIGHLY PRESSURIZED SUPERSATURATED SOLUTION” (Regents of the University of Minnesota, priority 2021, published 2024).

Key:
[1] = Oxygen content dissolved in saline under different pressure and temperature, with and without nanobubbles; format: physicochemical; conditions: FIG. 4A; 5° C. and 5 atm
Excerpt: Nanobubbles (triangles) are compared to control and macrobubbles (dots).

[2] = 1 atm, room temperature; cited from earlier work

oxygen content in saline without nanobubbles [1]: 200 ml of oxygen per L of saline
SMILES: O=O [oxygen]
content of oxygen, previously published evidence [2]: 43 ml/liter
